Source: patent US9499493B2, “2,4-pyrimidinediamine compounds and their uses” (Rigel Pharmaceuticals, Inc., priority 2002, dated 2016)

Key:
Type in all cases: cell-based
[1] = tested on: FcγRI-mediated degranulation; assay: FcγRI receptor-mediated degranulation (activation with anti-human IgG Fab fragment); conditions: cells not primed with IgE, activated with rabbit anti-human IgG Fab fragment
[2] = tested on: cultured human mast cells (CHMC); assay: CHMC low cell density ionomycin activation: tryptase assay
[3] = tested on: cultured human mast cells (CHMC); assay: CHMC low cell density IgE activation: tryptase assay; conditions: anti-IgE
Summary of the method: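 Supernatant tryptase activity, assayed with substrate for 30 min at room temperature, served as the degranulation measure. Mast cells (1000-1500 per well depending on donor) sat 1 hr at 37° C in MT before a 30 min anti-IgE challenge at 37° C.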

Jurkat cells = assay: Jurkat (T-cell) toxicity, light scatter; conditions: 18-24 hr incubation; read-out: Toxicity Jurkat Light Scat.
Procedure: Dilute Jurkat cells to 2×10^5 cells/ml in complete RPMI (10% heat-inactivated fetal bovine serum) media and incubate at 37° C., 5% CO2 for 18 hours. Add 65 ul cells at 7.7×10^5 cells/ml to a 96-well V-bottom plate (TC-treated, Costar) containing 65 ul 2× compound (final vehicle concentration is 0.5% DMSO, 1.5% MeOH). Mix, incubate plates for 18-24 hr at 37° C., 5% CO2. Toxicity was assessed by flow cytometric analysis of cellular light scatter

[4] = tested on: cultured human mast cells (CHMC); assay: CHMC low cell density IgE activation: LTC4 assay; conditions: anti-IgE
Procedure: Pellet CHMC cells (980 rpm, 10 min) and resuspend in pre-warmed MT. Add 65 ul of cells to each 96-well plate. Depending on the degranulation activity for each particular CHMC donor, load 1000-1500 cells/well. Mix four times followed by a 1 hr incubation at 37° C. […] Stimulate cells by adding 25 ul of 6× anti-IgE solution to the appropriate plates. Add 25 ul MT to un-stimulated control wells. Mix twice following addition of the anti-IgE. Incubate at 37° C. for 30 minutes. […] Spin plates at 1000 rpm for 10 min to pellet cells. Transfer 25 ul of supernatant to a 96-well black bottom plate and add 100 ul of freshly diluted tryptase substrate solution to each well. Incubate plates at room temperature for 30 min.
Leukotriene C4 (LTC4) is also quantified using an ELISA kit on appropriately diluted supernatant samples (determined empirically for each donor cell population so that the sample measurement falls within the standard curve) following the supplier's instructions.

B-cell line BJAB = assay: BJAB (B-cell) toxicity, light scatter; conditions: read-out: Toxicity BJAB Light Scat.
Procedure: The B-cell line BJAB was cultured in log phase in RPMI1640+10% heat-inactivated fetal bovine serum, 1× L-glutamine, 1× penicillin, 1× […] and 1× beta-mercaptoethanol at 37° C., 5% CO2. First, BJABs were harvested, spun and resuspended in culture medium to a concentration of 7.7×10^5 cells/mL. 65 uL cells were mixed with 65 uL compound, in duplicate and in the presence of 0.1% DMSO in a V-bottomed 96-well tissue culture plate. Cells were incubated with compound at various dilutions at 37° C., 5% CO2. Toxicity was assessed by flow cytometric analysis of cellular light scatter.

[5] = tested on: cultured human mast cells (CHMC); assay: CHMC high cell density IgE activation: hexos (hexosaminidase) release; conditions: anti-IgE activation
Procedure: (§1) Inhibition of degranulation was measured at both low and high cell density by quantifying the release of the granule specific factors tryptase, histamine and hexosaminidase. Inhibition of release and/or synthesis of lipid mediators was assessed by measuring the release of leukotriene LTC4 and inhibition of release and/or synthesis of cytokines was monitored by quantifying TNF-α, IL-6 and IL-13. Tryptase and hexosaminidase were quantified using fluorogenic substrates as described in their respective examples. […] The protocols of the various assays are provided below.
(§2) After sensitizing, cells are counted, pelleted (1000 rpm, 5-10 minutes), and resuspended at 1-2×10^6 cells/ml in MT buffer. Add 100 ul of cell suspension to each well and 100 ul of compound dilutions. The final vehicle concentration is 0.5% DMSO. Incubate at 37° C. (5% CO2) for 1 hour. After 1 hour of compound treatment, stimulate cells with 6× anti-IgE. Mix wells with the cells and allow plates to incubate at 37° C. (5% CO2) for one hour. After 1 hour incubation, pellet cells (10 minutes, 1000 RPM) and collect 200 ul per well of the supernatant, being careful not to disturb pellet. Place the supernatant plate on ice. During the 7-hour step (see next) perform tryptase assay on supernatant that had been diluted 1:500. Resuspend cell pellet in 240 ul of CM media containing 0.5% DMSO and corresponding concentration of compound. Incubate CHMC cells for 7 hours at 37° C. (5% CO2). After incubation, pellet cells (1000 RPM, 10 minutes) and collect 225 ul per well and place in −80° C. until ready to perform ELISAS. ELISAS are performed on appropriately diluted samples (determined empirically for each donor cell population so that the sample measurement falls within the standard curve) following the supplier's instructions.

[6] = tested on: cultured human mast cells (CHMC); assay: CHMC high cell density IgE activation: LTC4; conditions: anti-IgE activation
Procedure: as §1, §2

[7] = tested on: cultured human mast cells (CHMC); assay: CHMC high cell density IgE activation: tryptase; conditions: anti-IgE activation
Procedure: as §2

[8] = tested on: cultured human mast cells (CHMC); assay: CHMC high cell density IgE activation: histamine; conditions: anti-IgE activation
Procedure: as §1, §2

[9] = tested on: cultured human mast cells (CHMC); assay: CHMC high cell density IgE activation: TNFalpha; conditions: anti-IgE activation; read-out: CHMC high density TNF-alpha
Procedure: as §1, §2

[10] = tested on: cultured human mast cells (CHMC); assay: CHMC high cell density IgE activation: IL-13; conditions: anti-IgE activation
Procedure: as §1, §2

| SMILES | IC50 [2] [µM] | IC50 [3] [µM] | IC50 (Jurkat cells) [µM] | IC50 [4] [µM] | IC50 (B-cell line BJAB) [µM] | other results |
| --- | --- | --- | --- | --- | --- | --- |
| CNC(=O)COc1cccc(Nc2ncc(F)c(Nc3ccc(OC(F)(F)F)c(Cl)c3)n2)c1 [R920410, N4-(3-Chloro-4-trifluoromethoxyphenyl)-5-fluoro-N2-[3-(N-methylamino)carbonylmethyleneoxyphenyl]-2,4-pyrimidinediamine] | > 10 |  |  |  |  | FcγRI-mediated degranulation (in words) [1]: inhibit FcγRI-mediated degranulation |
| CCOC(=O)COc1ccc(Nc2ncc(Br)c(Nc3cccc(O)c3)n2)cc1 [R926396, 5-Bromo-N2-(4-ethoxycarbonylmethyleneoxyphenyl)-N4-(3-hydroxyphenyl)-2,4-pyrimidinediamine] | 2.6 | 0.7 | > 10 | 0.16 | > 10 |  |
| COC(=O)c1cc2cc(Nc3ncc(F)c(Nc4ccc5[nH]c(C(=O)OC)cc5c4)n3)ccc2[nH]1 [R926593] |  |  |  |  |  | IC50 ([3]; Homo sapiens, Mast cell): 0.68 µM; IC50 ([4]; Homo sapiens, Mast cell): 0.495 µM; IC50 ([2]; Homo sapiens, Mast cell): 8.3 µM |
| COC(=O)COc1ccc(Nc2ccnc(Nc3ccc(OCC(=O)OC)cc3)n2)cc1 [R926256, N2,N4-Bis[(4-methoxycarbonylmethyleneoxy)phenyl]-2,4-pyrimidinediamine] | 5.1 | 0.275 | > 10 | 0.23 | > 10 |  |
| CCOC(=O)c1cnc(Nc2ccc(OCC(=O)OC)cc2)nc1Nc1ccc(OCC(=O)OC)cc1 [R926253, N2,N4-Bis(4-methoxycarbonylmethyleneoxyphenyl)-5-ethoxycarbonyl-2,4-pyrimidinediamine] |  | 0.8 | > 10 | 0.675 | > 10 |  |
| Fc1cnc(Nc2ccc(OCc3nnn[nH]3)cc2)nc1Nc1ccc(OCc2nnn[nH]2)cc1 [R945033, N2,N4-Bis[4-(1H-1,2,3,4-tetrazol-5-yl)methyleneoxyphenyl]-5-fluoro-2,4-pyrimidinediamine] | > 10 | > 10 |  |  |  | IC50 [5]: 8.15 µM; IC50 [6]: 5.98 µM; IC50 [7]: 8.87 µM; IC50 [8]: > 10 µM |
| CNC(=O)COc1cccc(Nc2ncc(F)c(Nc3ccc4c(n3)NC(=O)C(C)(C)O4)n2)c1 [R940347, N4-[(2,2-Dimethyl-4H-5-pyrido[1,4]oxazin-3-one)-6-yl]-5-fluoro-N2-[3-(methylaminocarbonylmethyleneoxy)phenyl]-2,4-pyrimidinediamine] |  | 0.063 |  |  |  | FcγRI-mediated degranulation (in words) [1]: inhibit FcγRI-mediated degranulation |
| Cc1cc(Nc2nc(Nc3cccc(OCC(=O)N4CCNCC4)c3)ncc2F)cc(C)c1O [R945140, N4-(3,5-Dimethyl-4-hydroxyphenyl)-5-fluoro-N2-[3-(N-piperazino)carbonylmethyleneoxyphenyl]-2,4-pyrimidinediamine] | > 10 | 0.573 |  |  |  | IC50 [5]: 0.994 µM; IC50 [9]: 1.71 µM; IC50 [10]: > 10 µM; IC50 [7]: 1.11 µM; IC50 [8]: 1.55 µM |
| Fc1cnc(Nc2cccc(OCCN3CCOCC3)c2)nc1Nc1ccc2c(c1)OCCO2 [R926486, N4-(3,4-Ethylenedioxyphenyl)-5-fluoro-N2-[3-[2-(N-morpholino)ethyleneoxy]phenyl]-2,4-pyrimidinediamine] | 7.4 | 0.647 |  |  |  | IC50 [9]: 0.455 µM |
| CCOC(=O)COc1ccc(Nc2ncc(C#N)c(Nc3ccc(OCC(=O)OCC)cc3)n2)cc1 [R925775, N2,N4-Bis[4-(ethoxycarbonylmethyleneoxy)phenyl]-5-cyano-2,4-pyrimidinediamine] | > 10 |  | > 10 |  | > 10 |  |
| O=C1Nc2cc(Nc3ncc(F)c(Nc4ccc5c(c4)NC(=O)C(F)(F)O5)n3)ccc2OC1(F)F [R940352, N2,N4-[(2,2-Difluoro-4H-benzo[1,4]oxazin-3-one)-6-yl]-5-fluoro-2,4-pyrimidinediamine] | > 10 | 0.101 |  |  |  | FcγRI-mediated degranulation (in words) [1]: inhibit FcγRI-mediated degranulation |
| COC(=O)COc1ccc(Nc2ncc(C)c(Nc3ccc(OCC(=O)OC)cc3)n2)cc1 [R926258, N2,N4-Bis(4-methoxycarbonylmethyleneoxyphenyl)-5-methyl-2,4-pyrimidinediamine] | > 10 | 0.9 | > 10 | 0.59 | > 10 |  |
| CCOC(=O)COc1ccc(Nc2ncc(F)c(Nc3cccc(O)c3)n2)cc1 [R926395, N2-(4-Ethoxycarbonylmethyleneoxyphenyl)-5-fluoro-N4-(3-hydroxyphenyl)-2,4-pyrimidinediamine] | 6.4 | 0.875 | > 10 | 0.29 | > 10 |  |
| COC(=O)COc1ccc(Nc2ncc(F)c(Nc3ccc(OCC(=O)OC)cc3)n2)cc1 [R926240, N2,N4-Bis[(4-methoxycarbonylmethyleneoxy)phenyl]-5-fluoro-2,4-pyrimidinediamine] | 1.7 | 0.381 | 10 | 0.145 | > 10 |  |
| CC(C)Oc1ccc(Nc2nc(Nc3ccc4oc(C(=O)N5CCCC5)cc4c3)ncc2F)cc1 [R926703, 5-Fluoro-N4-(4-isopropoxyphenyl)-N2-[2-(N-pyrrolidino)carbonylbenzofuran-5-yl]-2,4-pyrimidinediamine] | > 10 | 0.525 |  |  |  | IC50 [5]: 1.51 µM; IC50 [6]: 0.724 µM; IC50 [9]: > 2 µM; IC50 [7]: 1.95 µM; IC50 [8]: > 2 µM |
| CCOC(=O)COc1ccc(Nc2ncc(Br)c(Nc3ccc(OCC(=O)OCC)cc3)n2)cc1 [R925779, N2,N4-Bis[4-(ethoxycarbonylmethyleneoxy)phenyl]-5-bromo-2,4-pyrimidinediamine] | > 10 | 0.265 | > 10 | 0.19 | > 10 |  |
| Cc1nc(COc2cccc(Nc3ncc(F)c(Nc4ccc5c(c4)OCCO5)n3)c2)no1 [R945128, N4-(3,4-Ethylenedioxyphenyl)-5-fluoro-N2-[3-(5-methyl-1,2,4-oxadiazol-3-yl)methyleneoxyphenyl]-2,4-pyrimidinediamine] | 8.8 |  |  |  |  | IC50 [5]: 1.28 µM; IC50 [9]: > 2 µM; IC50 [7]: 1.75 µM; IC50 [8]: 0.547 µM |
| COC(=O)COc1ccc(Nc2cc(Cl)nc(Nc3ccc(OCC(=O)OC)cc3)n2)cc1 [R926411, N2,N4-Bis(4-methoxycarbonylmethyleneoxyphenyl)-6-chloro-2,4-pyrimidinediamine] | 2.5 | 0.69 | 8.5 |  | > 10 |  |
